Test results taken from patent US11912645B2, “Lipopeptide compounds for the treatment of pain disorders” (INSERM (Institut National de la Santé et de la Recherche …, priority 2017, dated 2024).

Columns and labels:
[1] = system: mouse dorsal root ganglia (DRG) neurons; experiment: Calcium mobilization in primary DRG sensory neurons, basal (unstimulated); format: cell-based; settings: 10 μM
Experimental: Male C57B16 mice (6-8 weeks) were used to produce primary cultures of dorsal root ganglia (DRG) sensory neurons for calcium flux experiments, and to perform studies of colorectal distention and intestinal isotonic contraction. All procedures were approved by Institutional Animal Care Committees (CEEA 122).
To determine whether C12-Asn-GABA or C12-Asn-BABA is capable of signaling to sensory nerves, calcium mobilization studies were performed on primary cultures of mouse dorsal root ganglia (DRG) neurons. […] The same experiments were thereafter performed in neurons activated by either an agonist of the receptor calcium channel TRPV1 (capsaicin) or by a mix of agonists (histamine, serotonin and bradykinin) for G protein coupled receptors (GPCR) implicated in visceral hypersensitivity. Exposure of neurons to either capsaicin (125 nM) or the mix of GPCR agonists (histamine, bradykinin, serotonin, 10 μM each) induced an increase in calcium flux as shown by the higher % of responding neurons and amplitude of the response (ΔF/F) compared to the vehicle (FIG. 4A, 4B). […] To investigate whether the inhibitory effect of C12-Asn-GABA was associated to the GABA residue, neurons were treated with saclofen (10, 50, and 100 μM), a competitive antagonist of the GABAB receptor. […]

Caco-2 cells [2] = experiment: Absorption across Caco-2 monolayer in transwell chambers; format: in vitro ADME, human; settings: 800 ng apical
Experimental: (§1) FIG. 5: C12-Asn-GABA crosses the epithelial barrier without modifying epithelial cells physiology. Caco-2 cells were cultivated into transwell chambers. After treatment with C12-Asn-GABA (800 ng) at the apical side, C12-Asn-GABA was quantified inside the cells and both the apical and basolateral compartments by LC-MS/MS (A); data are represented as mean±SEM, n=3 experiments of 3 wells per condition. Extracted ion chromatogram at the exact mass of GABA (104.0702 m/z) with a mass accuracy of 5 ppm of the GABA commercial standard (GABA (Std.) and apical and basolateral compartments after loading or not Caco-2 cells with 800 ng of GABA at the apical site (B); representation of one well, n=3 experiments of 3 wells per condition. Paracellular permeability assessed by the passage of FITC-dextran loaded at the apical side (C) and CXCL8 secretion assessed by ELISA (D) were monitored after treatment of Caco-2 cells at the apical side with C12-Asn-GABA (10 μM); data are represented as mean±SEM, n=3 experiments of 3 wells per condition. […]
Caco-2 cells were grown in Glutamax DMEM (Gibco, Invitrogen life technologies, Paisley, UK) supplemented with 10% heat-inactivated fetal bovine serum (FBS) (Gibco, Invitrogen life technologies, Paisley, UK), 1% nonessential amino acids and 1% antibiotics (100 U/ml penicillin and […] streptomycin (Gibco, Invitrogen life technologies, Grand Island, N.Y., USA) at 37° C. in a 5% C02 water-saturated atmosphere. Cells were seeded on Transwell inserts (Costar, Sigma-Aldrich, Saint-Quentin Fallavier, France) and absorption studies of C12-Asn-GABA and GABA were performed 16 days later. These compounds were quantified by LC-MS/MS in both apical and basolateral chambers as well as in cells. The effect of C12-Asn-GABA (1-100 μM) on paracellular permeability was also measured by mucosal-to-serosal flux of 4 kDa Fluorescein Isothiocyanate (FITC)-labelled dextran as previously described^31. […]
The initial barrier for any drug absorption is the intestinal epithelial cell wall. […] The transport of GABA alone across the cell monolayer was also assessed. […]

Caco-2 cells [3] = experiment: Paracellular permeability, 4 kDa FITC-dextran flux across Caco-2 monolayer; format: cell-based, human; settings: 10 μM apical, 24 h
Experimental: as §1
(§2) To assess the effect of C12-Asn-GABA on paracellular permeability, transport of dextran 4 kDa FITC across a Caco-2 cell monolayer was investigated. […] In parallel, the release of CXCL8 from Caco-2 cells into the medium, of both apical and basolateral sides of the transwell, was assessed by ELISA. […]

Caco-2 cells [4] = experiment: CXCL8 secretion by Caco-2 cells (ELISA); format: cell-based, human; settings: 1, 10, 100 μM; 24 hours
Experimental: as §1, §2

- fraction of apically added compound found in the basolateral chamber (Caco-2 cells [2]; 24 h, LC-MS/MS): approximately 50%
- level in epithelial cells (Caco-2 cells [2]; 24 h of incubation): low levels
Structure (SMILES): CCCCCCCCCCCC(=O)NC(CC(N)=O)C(=O)NCCCC(=O)O (centres unmarked) [C12-Asn-GABA, C11 C(O)-Asn-gamma-aminobutyric acid]
- calcium mobilization under basal (unstimulated) conditions [1]: does not induce calcium mobilization
- percentage of 4 kDa FITC traversing the cell monolayers (paracellular permeability) (Caco-2 cells [3]): not modified
- secretion of CXCL8 (apical and basolateral) (Caco-2 cells [4]): None of the tested doses (1, 10, 100 μM) and neither the vehicle modified the secretion of CXCL8
